Measurements: paper PMC11675580, “Supersaturated Gel Formulation (SGF) of Atorvastatin at a Maximum Dose of 80 mg with Enhanced Solubility, Dissolution, and Physical Stability” (Gels, 2024)

Assay: Drug release kinetics (first-order fit)
Format: physicochemical
Description: The drug release data was fitted to kinetic models of first-order, and the coefficient of determination (r^2) was indicative of best-fit model to describe drug release kinetics.

Compound: CC(C)c1c(C(=O)Nc2ccccc2)c(-c2ccccc2)c(-c2ccc(F)cc2)n1CC[C@@H](O)C[C@@H](O)CC(=O)O [ATR, Atorvastatin calcium trihydrate]
- Drug release rate constant (first-order rate constant, K1) (Water, release data until 30 min): 1.092
- Drug release rate constant (first-order rate constant, K1) (pH 1.2, release data until 30 min): 0.608
- Drug release rate constant (first-order rate constant, K1) (pH 4.0, release data until 30 min): 0.752
- Drug release rate constant (first-order rate constant, K1) (pH 6.8, release data until 30 min): 1.040
